Laboratory results taken from ChEMBL document CHEMBL1121680, “2,4-Diamino-5-benzylpyrimidines and analogues as antibacterial agents. 5. 3',5'-Dimethoxy-4'-substituted-benzyl analogues of trimethoprim” (J Med Chem, 1981).

What was measured:
[1] = target: T1, Dihydrofolate reductase (Rattus norvegicus, UniProt Q920D2); experiment: Inhibition of rat liver Dihydrofolate reductase.; settings: read-out: I50
T1 sequence (Q920D2 whole entry): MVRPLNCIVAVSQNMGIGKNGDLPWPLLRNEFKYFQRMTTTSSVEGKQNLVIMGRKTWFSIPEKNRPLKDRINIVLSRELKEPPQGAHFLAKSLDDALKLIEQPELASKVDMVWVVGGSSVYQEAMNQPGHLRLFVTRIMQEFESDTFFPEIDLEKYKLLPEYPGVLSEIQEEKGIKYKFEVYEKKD

[2] = target: T2, Dihydrofolate reductase (Rattus norvegicus) (UniProt Q920D2); experiment: PCompound was tested for inhibitory activity against Dihydrofolate reductase of rat liver at 40000 M
T2 sequence (whole entry): T1 sequence (Q920D2 whole entry)

[3] = tested on: Oryctolagus cuniculus; experiment: Peak serum concentration reached within 1 hr of administration of 5 mg/kg oral dose; type: functional, organism-based; design: dose 5 mg/kg
[4] = target: T2, Dihydrofolate reductase (Rattus norvegicus); experiment: Compound was tested for inhibitory activity against Dihydrofolate reductase of rat liver at 22400 M
[5] = target: T2, Dihydrofolate reductase (Rattus norvegicus); experiment: Percent inhibition of compound against Dihydrofolate Reductase of rat liver at 27400 M
[6] = target: T2, Dihydrofolate reductase (Rattus norvegicus); experiment: Compound was tested for inhibitory activity against Dihydrofolate reductase of rat liver at 29000 M
[7] = target: T2, Dihydrofolate reductase (Rattus norvegicus); experiment: Compound was tested for inhibitory activity against Dihydrofolate reductase of rat liver at 10000 M
[8] = target: T1, Dihydrofolate reductase; experiment: Compound was tested for inhibitory activity against Dihydrofolate Reductase of rat liver; settings: read-out: I50
[9] = target: T2, Dihydrofolate reductase (Rattus norvegicus); experiment: Compound was tested for inhibitory activity against Dihydrofolate reductase of rat liver at 40000 M

Question: For `COc1cc(Cc2cnc(N)nc2N)cc(OC)c1OCCCCN1C(=O)c2ccccc2C1=O`, which IC50 [1] is on record?
Answer: 54 µM

Question: With `COCCOc1c(OC)cc(Cc2cnc(N)nc2N)cc1OC` as the compound, how does the inhibition [2] read?
Answer: 16%

Question: And the Concentration [3]?
Answer: 2 µg/mL

Question: With `COc1cc(Cc2cnc(N)nc2N)cc(OC)c1OCCO` as the compound, how does the IC50 [1] read?
Answer: > 400 µM

Question: With `COc1cc(Cc2cnc(N)nc2N)cc(OC)c1OCC(=O)O` as the compound, how does the inhibition [4] read?
Answer: 20%

Question: Which inhibition [5] does the source give for `COc1cc(Cc2cnc(N)nc2N)cc(OC)c1OCC(O)CO` (centres undefined) here?
Answer: 32%

Question: `COc1cc(Cc2cnc(N)nc2N)cc(OC)c1Oc1ccc(NC(=O)CBr)cc1` was tested. Which inhibition [6] did it give?
Answer: 37%

Question: How did the inhibition [7] turn out when `COc1cc(Cc2cnc(N)nc2N)cc(OC)c1OCCCN` was run?
Answer: 39%

Question: How did the IC50 [1] turn out when `COc1cc(Cc2cnc(N)nc2N)cc(OC)c1OCCCCCC(=O)O` was run?
Answer: 296 µM

Question: `COc1cc(Cc2cnc(N)nc2N)cc(OC)c1OCCCN1C(=O)c2ccccc2C1=O` was tested. Which IC50 [1] did it give?
Answer: 69 µM

Question: For `CCCCOc1c(OC)cc(Cc2cnc(N)nc2N)cc1OC`, which IC50 [1] is on record?
Answer: 580 µM

Question: For `COC(=O)CCCCCOc1c(OC)cc(Cc2cnc(N)nc2N)cc1OC`, which IC50 [1] is on record?
Answer: 1100 µM

Question: How did the IC50 [1] turn out when `COc1cc(COc2c(OC)cc(Cc3cnc(N)nc3N)cc2OC)cc(OC)c1OC` was run?
Answer: 15 µM

Question: `CCCOc1c(OC)cc(Cc2cnc(N)nc2N)cc1OC` was tested. Which IC50 [8] did it give?
Answer: 250 µM

Question: How did the inhibition [9] turn out when `COc1cc(Cc2cnc(N)nc2N)cc(OC)c1OCCCN1CCCCC1` was run?
Answer: 20%

Question: With `CCCCCOc1c(OC)cc(Cc2cnc(N)nc2N)cc1OC` as the compound, how does the IC50 [1] read?
Answer: 270 µM

Question: `COc1cc(Cc2cnc(N)nc2N)cc(OC)c1OCCN` was tested. Which inhibition [9] did it give?
Answer: 38%

Question: Which IC50 [1] does the source give for `COc1cc(Cc2cnc(N)nc2N)cc(OC)c1OCCCCCCN` here?
Answer: 560 µM

Question: How did the inhibition [9] turn out when `COc1cc(Cc2cnc(N)nc2N)cc(OC)c1OCCCN1CCN(C)CC1` was run?
Answer: 36%
